Laboratory results taken from the NIST ThermoML archive (doi:10.1021/acs.jced.8b00132).
“And” between values parts separate entries of the source, which are not always exact repeats. Identical values can stand only once. Numbers after ± are expanded uncertainties.

Settings: Liquid, transient hot wire

O=C(C(F)(F)C(F)(F)F)C(F)(C(F)(F)F)C(F)(F)F [dodecafluoro-2-methylpentan-3-one]
Settings | thermal conductivity
182.75 K, 277 kPa | 0.07883 ± 0.0016 W/m/K
182.75 K, 315 kPa | 0.07859 ± 0.0016 W/m/K
182.89 K, 13189 kPa | 0.08133 ± 0.0017 W/m/K
182.89 K, 19887 kPa | 0.08218 ± 0.0017 W/m/K
182.89 K, 19910 kPa | 0.08244 ± 0.0017 W/m/K
182.89 K, 21592 kPa | 0.08301 ± 0.0017 W/m/K
182.89 K, 21600 kPa | 0.08295 ± 0.0017 W/m/K
182.9 K, 13187 kPa | 0.08114 ± 0.0017 W/m/K
183.09 K, 352 kPa | 0.0792 ± 0.0016 W/m/K
183.09 K, 355 kPa | 0.07913 ± 0.0016 W/m/K
183.16 K, 13354 kPa | 0.08121 ± 0.0017 W/m/K
183.16 K, 13358 kPa | 0.08178 ± 0.0017 W/m/K
183.18 K, 6554 kPa | 0.07996 ± 0.0016 W/m/K
183.18 K, 6555 kPa | 0.08035 ± 0.0016 W/m/K
183.19 K, 88 kPa | 0.07924 ± 0.0016 W/m/K
183.19 K, 92 kPa | 0.07941 ± 0.0016 W/m/K
183.21 K, 21596 kPa | 0.08274 ± 0.0017 W/m/K
183.21 K, 21614 kPa | 0.08282 ± 0.0017 W/m/K
183.22 K, 13197 kPa | 0.08104 ± 0.0017 W/m/K
183.22 K, 13203 kPa | 0.08122 ± 0.0017 W/m/K
183.22 K, 19909 kPa | 0.08195 ± 0.0017 W/m/K
183.22 K, 19917 kPa | 0.08246 ± 0.0017 W/m/K
183.46 K, 394 kPa | 0.07899 ± 0.0016 W/m/K
183.47 K, 372 kPa | 0.07904 ± 0.0016 W/m/K
183.49 K, 13357 kPa | 0.0812 ± 0.0017 W/m/K
183.49 K, 13358 kPa | 0.08133 ± 0.0017 W/m/K
183.51 K, 6548 kPa | 0.08023 ± 0.0016 W/m/K
183.51 K, 6554 kPa | 0.08027 ± 0.0016 W/m/K
183.52 K, 86 kPa | 0.07888 ± 0.0016 W/m/K
183.53 K, 84 kPa | 0.07899 ± 0.0016 W/m/K
183.57 K, 19904 kPa | 0.08223 ± 0.0017 W/m/K
183.57 K, 19917 kPa | 0.08242 ± 0.0017 W/m/K
183.57 K, 21616 kPa | 0.0827 ± 0.0017 W/m/K
183.57 K, 21619 kPa | 0.08258 ± 0.0017 W/m/K
183.58 K, 13189 kPa | 0.08088 ± 0.0017 W/m/K and 0.0813 ± 0.0017 W/m/K
183.86 K, 13353 kPa | 0.08129 ± 0.0017 W/m/K
183.86 K, 13354 kPa | 0.08129 ± 0.0017 W/m/K
183.88 K, 417 kPa | 0.07826 ± 0.0016 W/m/K
183.88 K, 441 kPa | 0.07853 ± 0.0016 W/m/K
183.88 K, 6566 kPa | 0.0801 ± 0.0016 W/m/K
183.88 K, 6568 kPa | 0.07993 ± 0.0016 W/m/K
183.9 K, 66 kPa | 0.07888 ± 0.0016 W/m/K
183.96 K, 21629 kPa | 0.08212 ± 0.0017 W/m/K
183.97 K, 19889 kPa | 0.08191 ± 0.0017 W/m/K
183.97 K, 19910 kPa | 0.08222 ± 0.0017 W/m/K
183.97 K, 21622 kPa | 0.0819 ± 0.0017 W/m/K
183.98 K, 13198 kPa | 0.08092 ± 0.0017 W/m/K
183.98 K, 13202 kPa | 0.08101 ± 0.0017 W/m/K
184.26 K, 13357 kPa | 0.08106 ± 0.0017 W/m/K
184.26 K, 13366 kPa | 0.08106 ± 0.0017 W/m/K
184.29 K, 6565 kPa | 0.07964 ± 0.0016 W/m/K
184.29 K, 6575 kPa | 0.07978 ± 0.0016 W/m/K
184.31 K, 72 kPa | 0.07867 ± 0.0016 W/m/K
184.31 K, 77 kPa | 0.07869 ± 0.0016 W/m/K
184.34 K, 428 kPa | 0.07819 ± 0.0016 W/m/K
184.34 K, 453 kPa | 0.0783 ± 0.0016 W/m/K
184.41 K, 19891 kPa | 0.08157 ± 0.0017 W/m/K
184.41 K, 19917 kPa | 0.08156 ± 0.0017 W/m/K
184.41 K, 21623 kPa | 0.08222 ± 0.0017 W/m/K
184.41 K, 21641 kPa | 0.08226 ± 0.0017 W/m/K
184.43 K, 13196 kPa | 0.0804 ± 0.0016 W/m/K
184.43 K, 13197 kPa | 0.08067 ± 0.0017 W/m/K
184.7 K, 13354 kPa | 0.08048 ± 0.0016 W/m/K
184.71 K, 13360 kPa | 0.0804 ± 0.0016 W/m/K
184.74 K, 6561 kPa | 0.07906 ± 0.0016 W/m/K
184.74 K, 6562 kPa | 0.07913 ± 0.0016 W/m/K
184.76 K, 74 kPa | 0.07764 ± 0.0016 W/m/K
184.77 K, 70 kPa | 0.07835 ± 0.0016 W/m/K
191.32 K, 109 kPa | 0.078 ± 0.0016 W/m/K
191.32 K, 120 kPa | 0.07787 ± 0.0016 W/m/K
191.32 K, 6011 kPa | 0.07821 ± 0.0016 W/m/K
191.32 K, 6012 kPa | 0.0792 ± 0.0016 W/m/K
191.32 K, 9411 kPa | 0.08012 ± 0.0016 W/m/K
191.33 K, 9419 kPa | 0.07979 ± 0.0016 W/m/K
191.63 K, 28269 kPa | 0.08273 ± 0.0017 W/m/K
191.63 K, 28273 kPa | 0.08292 ± 0.0017 W/m/K
191.63 K, 36162 kPa | 0.08425 ± 0.0017 W/m/K
191.64 K, 36124 kPa | 0.08408 ± 0.0017 W/m/K
191.64 K, 44196 kPa | 0.08537 ± 0.0018 W/m/K
191.64 K, 44213 kPa | 0.08541 ± 0.0018 W/m/K
191.64 K, 52630 kPa | 0.08621 ± 0.0018 W/m/K
191.65 K, 52615 kPa | 0.08649 ± 0.0018 W/m/K
191.65 K, 61105 kPa | 0.08792 ± 0.0018 W/m/K
